{
  "source": "patent US20230381127A1",
  "about": "“COMPOSITIONS AND METHODS FOR MOOD ENHANCEMENT” (EPITRACKER, INC., priority 2020, published 2023)",
  "key": {"CB2": {"target": "T1, CB2 (Homo sapiens, UniProt P34972)", "T1 construct": "purchased DiscoverX/Eurofins SAFETYscan E/IC50 ELECT", "T1 sequence (P34972 whole entry)": "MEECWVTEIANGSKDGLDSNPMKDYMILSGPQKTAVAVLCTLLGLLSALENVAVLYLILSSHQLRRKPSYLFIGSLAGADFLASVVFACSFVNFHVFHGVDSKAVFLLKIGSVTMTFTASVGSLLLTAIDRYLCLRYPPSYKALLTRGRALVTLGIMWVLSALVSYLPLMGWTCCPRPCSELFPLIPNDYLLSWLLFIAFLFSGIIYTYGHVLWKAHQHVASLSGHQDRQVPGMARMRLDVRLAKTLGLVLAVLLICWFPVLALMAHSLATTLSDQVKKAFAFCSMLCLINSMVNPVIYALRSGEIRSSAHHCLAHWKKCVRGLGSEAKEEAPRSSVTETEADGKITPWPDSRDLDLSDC", "assay": "SAFETYscan E/IC50 ELECT functional assay, CB2 receptor agonist mode", "type": "cell-based", "conditions": "at 20 μM; relative to positive control CP 55940 assigned 100% activity", "from_the_text": "(§1) This study assessed potential pharmacologic targets of pentadecanoic acid. Specifically, this study examined agonist and antagonist activities of synthetic pentadecanoic acid across 78 assays using SAFETYscan E/IC50 ELECT (DiscoverX/Eurofins, Fremont, California). Briefly, a variety of standardized and optimized functional assays were used to assess pentadecanoic acid's pharmacologic targets, including G protein coupled receptors (ADORA2A, ADRA1A, ADRA2A, ADRB1, ADRB2, CB1, CB2, CCK1, D1, D2S, ETA, H1, H2, M1 M2, M3, OPRD1, OPRK1, OPRM1, 5HTR1A, 5HTR1B, 5HTR2A, 5HTR2B, AVPR1A), kinases (LCK, INSR, VEGFR2, ROCK1), transporters (DAT, NET, SERT), ion channels (GABAA, 5-HT3, CA1.2, HERG, KVLQT1/MINK, NA1.5, NMDAR1/2B, NACHR), nuclear receptors (AR, GR), and non-kinase enzymes (COX1, COX2, ACHE, MAOA, PDE3A, PDE4D2). Ten-point concentration curves for both agonist (EC50) and antagonist (IC50) activity were established for each target. Maximum activity (%) was also determined based on comparisons with internal positive controls, which were assigned 100% activity."}, "[1]": {"assay": "6-week voluntary electronic customer survey on stress and mood after daily fatty15 (C15:0) supplement", "type": "in vivo, human", "conditions": "100 mg daily oral (fatty15 capsule), 6 weeks; 135 responders; response of 7 or greater on 1-10 scale = agreement", "protocol": "An odd-chain saturated fatty acid dietary supplement, containing an encapsulated pure (>98%) free fatty acid C15:0 powder and called fatty15™, was available as a consumer health product. Recommended dosing is a single, 100 mg capsule taken orally once a day.\n6-Week Survey. Approximately six weeks following receipt of the C15:0 supplement, fattyl5, customers were provided a voluntary electronic questionnaire to evaluate potential near-term benefits, including the questions: “Overall how much would you agree with the following statement: Since starting fatty15, I have been feeling more calm and/or less stressed.” and “Overall how much would you agree with the following statement: Since starting fatty15, I generally feel happier and/or not as bothered by things that used to upset me.”\nSurvey responders were asked to select a number between 1 and 10, in which 1=Strongly disagree and 10=Strongly agree. A response of 7 or greater was considered an agreement with the statement. Survey responders were also asked if fatty15 had become a part of their daily health routine."}, "[2]": {"assay": "Customer testimonials on stress and mood with fatty15 (C15:0) supplement", "type": "in vivo, human", "conditions": "daily oral supplementation 100 mg/day (fatty15); summary of testimonials in the 1st table", "protocol": "An odd-chain saturated fatty acid dietary supplement, containing an encapsulated pure (>98%) free fatty acid C15:0 powder and called fatty15™, is available as a consumer health product. Recommended dosing is a single, 100 mg capsule taken orally once a day. Customers were provided opportunities to share their experience, including through voluntary surveys and customer rating programs."}, "CB1": {"target": "T2, CB1 (Homo sapiens, UniProt P21554)", "T2 construct": "purchased DiscoverX/Eurofins SAFETYscan E/IC50 ELECT", "T2 sequence (P21554 whole entry)": "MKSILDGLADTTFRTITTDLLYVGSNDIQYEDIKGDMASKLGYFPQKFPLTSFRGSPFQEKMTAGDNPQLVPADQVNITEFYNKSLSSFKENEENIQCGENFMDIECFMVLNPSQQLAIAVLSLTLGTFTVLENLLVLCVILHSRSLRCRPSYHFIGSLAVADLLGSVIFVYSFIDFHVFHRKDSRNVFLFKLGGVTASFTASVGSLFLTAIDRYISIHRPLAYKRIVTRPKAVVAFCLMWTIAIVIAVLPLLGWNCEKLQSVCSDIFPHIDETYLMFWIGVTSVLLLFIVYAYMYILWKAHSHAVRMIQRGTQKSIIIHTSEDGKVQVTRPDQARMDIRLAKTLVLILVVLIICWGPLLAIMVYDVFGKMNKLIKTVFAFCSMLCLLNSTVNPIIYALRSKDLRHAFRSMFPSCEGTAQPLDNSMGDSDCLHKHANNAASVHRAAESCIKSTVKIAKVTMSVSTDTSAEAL", "assay": "SAFETYscan E/IC50 ELECT functional assay, CB1 receptor agonist mode", "type": "cell-based", "conditions": "at 20 μM; relative to positive control CP 55940 assigned 100% activity", "from_the_text": "as §1"}},
  "data": [
    {"smiles": "CCCCCCCCCCCCCCC(=O)O", "note": "[pentadecanoic acid]", "values": [
      {"measurement": "CB2 agonist activity", "setting": "CB2", "result": 18.2, "unit": "%"},
      {"measurement": "customers reporting feeling calmer and/or less stressed", "setting": "[1]", "result": 41, "unit": "%"},
      {"measurement": "customers reporting feeling generally happier and/or not as bothered by things that used to upset them", "setting": "[1]", "result": 37, "unit": "%"},
      {"measurement": "effect on stress and mood per customer testimonials", "setting": "[2]", "result": "can lower stress and calm and enhance mood"},
      {"measurement": "CB1 agonist activity", "setting": "CB1", "result": 24.5, "unit": "%"}
    ]}
  ]
}
